The results in this text go back to ChEMBL document CHEMBL1157926, “Synthesis and biological evaluation of combretastatin analogs as cell cycle inhibitors of the G1 to S transition in Saccharomyces cerevisiae” (2010).

SMILES strings stand for the structures. Activity calls are given as the source filed them. The calls are words filed in the database; no cut-off is given here.

Assay [1] relates to Saccharomyces cerevisiae. The experiment in a line: Induction of log phase growth arrest in Saccharomyces cerevisiae BY4741. Type of assay: functional, organism-based.
Assay [2] has as its system Saccharomyces cerevisiae. The experiment in a line: Reduction of budding index in Saccharomyces cerevisiae BY4741 at 450 uM relative to control. Type of assay: functional. Details: scale not given: the % may be the effect or the level left.
The subject of assay [3] is Saccharomyces cerevisiae. In words: Cell cycle arrest in Saccharomyces cerevisiae BY4741 assessed as accumulation of cells at G1 phase at 450 uM after 3 hrs by FACS analysis. Type of assay: functional.
The subject of assay [4] is Saccharomyces cerevisiae. In words: Induction of G1 phase arrest in Saccharomyces cerevisiae expressing TAP-tagged Clb5 assessed as down-regulation of Clb5 level at 450 uM after 3 hrs by Western blot analysis. Type of assay: functional, organism-based. On the technique in general: A western blot detects proteins with antibodies after separation by electrophoresis.
Assay [5] concerns Saccharomyces cerevisiae. The experiment in a line: Induction of G1 phase arrest in Saccharomyces cerevisiae expressing TAP-tagged Cln1 assessed as down-regulation of Cln1 level at 450 uM after 3 hrs by Western blot analysis. Type of assay: functional, organism-based.
Assay [6] relates to Saccharomyces cerevisiae. In words: Induction of G1 phase arrest in Saccharomyces cerevisiae expressing TAP-tagged Cln2 assessed as down-regulation of Cln2 level at 450 uM after 3 hrs by Western blot analysis. Type of assay: functional, organism-based.
The test system of assay [7] is Saccharomyces cerevisiae. In words: Induction of G1 phase arrest in Saccharomyces cerevisiae expressing TAP-tagged Sic1 assessed as down-regulation of Sic1 level at 450 uM after 3 hrs by Western blot analysis. Type of assay: functional, organism-based.
Assay [8] has as its system Saccharomyces cerevisiae. In words: Induction of G1 phase arrest in alpha factor treated Saccharomyces cerevisiae expressing TAP-tagged Clb5 assessed as inhibition of Clb5 expression at 450 uM after 3 hrs by FACS analysis. Type of assay: functional, organism-based.
The test system of assay [9] is Saccharomyces cerevisiae. In words: Induction of snf1 phosphorylation at T210 in Saccharomyces cerevisiae expressing Snf1-9myc at 450 uM after 3 hrs by Western blot analysis. Type of assay: functional, organism-based.
Assay [10] deals with Saccharomyces cerevisiae. The experiment in a line: Cell cycle arrest in Saccharomyces cerevisiae BY4741 assessed as accumulation of cells at metaphase with post synthetic DNA content by FACS analysis. Type of assay: functional, organism-based. (In general: A flow cytometer gives signals particle by particle.)
Assay [11] deals with Saccharomyces cerevisiae. In words: Cell cycle arrest in Saccharomyces cerevisiae BY4741 assessed as accumulation of cells at metaphase with short spindles by FACS analysis. Type of assay: functional, organism-based.
Assay [12] has as its system Saccharomyces cerevisiae. In words: Growth inhibition of Saccharomyces cerevisiae BY4741 at 150 uM up to 180 mins. Type of assay: functional, organism-based.
In assay [13] the test system is Saccharomyces cerevisiae. The experiment in a line: Growth inhibition of Saccharomyces cerevisiae BY4741 at 300 uM up to 180 mins. Type of assay: functional, organism-based.
The test system of assay [14] is Saccharomyces cerevisiae. The experiment in a line: Growth inhibition of Saccharomyces cerevisiae BY4741 at 450 uM up to 180 mins. Type of assay: functional, organism-based.

Regarding `COc1ccc(/C=C\c2cc(OC)c(OC)c(OC)c2)cc1O` [COMBRETASTATIN A4], the results for the Activity entry in the assay on Saccharomyces cerevisiae [1], in the assay on Saccharomyces cerevisiae [2] and with Saccharomyces cerevisiae [3] were “Dose-dependent effect”, 42% and 50%, respectively. Further, the outcome with Saccharomyces cerevisiae [4], with Saccharomyces cerevisiae [8] and with Saccharomyces cerevisiae [9] was Active. Besides, the result in the assay with Saccharomyces cerevisiae [5], in the assay with Saccharomyces cerevisiae [6] and in the assay on Saccharomyces cerevisiae [7] was inactive.

On to `COc1ccc(/C=C\c2cc(OC)c(OC)c(OC)c2)c(O)c1O`, for which the Activity result in the assay on Saccharomyces cerevisiae [1] is “Dose-dependent effect”. Also, the result in the assay with Saccharomyces cerevisiae [10] and in the assay with Saccharomyces cerevisiae [11] was Active.

In the case of `COc1ccc(/C=C\c2cc(OC)c(OC)c(OC)c2)cc1B(O)O`, the Activity entry in the assay on Saccharomyces cerevisiae [1] is “Dose-dependent effect”; in the assay with Saccharomyces cerevisiae [2], 42%; in the assay with Saccharomyces cerevisiae [3], 50%. Also, the result in the assay with Saccharomyces cerevisiae [4], in the assay on Saccharomyces cerevisiae [8] and in the assay with Saccharomyces cerevisiae [9] was Active. In addition, the result in the assay on Saccharomyces cerevisiae [5], in the assay on Saccharomyces cerevisiae [6] and in the assay on Saccharomyces cerevisiae [7] was inactive.

`COc1ccc(/C=C\c2cc(OC)c(OC)c(OC)c2)cc1[N+](=O)[O-]`: the “growth inhibition (GI)” value with Saccharomyces cerevisiae [12], in the assay on Saccharomyces cerevisiae [13] and in the assay on Saccharomyces cerevisiae [14] was “inactive” each time.

Regarding `COc1ccc(/C=C/c2cc(OC)c(OC)c(OC)c2)c(O)c1O`, the “growth inhibition (GI)” value with Saccharomyces cerevisiae [12], in the assay on Saccharomyces cerevisiae [13] and with Saccharomyces cerevisiae [14] was “inactive” each time.

As for `COc1ccc(/C=C\c2cc(OC)c(OC)c(OC)c2)cc1N`, the “growth inhibition (GI)” value in the assay on Saccharomyces cerevisiae [12], in the assay with Saccharomyces cerevisiae [13] and in the assay with Saccharomyces cerevisiae [14] was “inactive” in each case.

With `COc1ccc(/C=C/c2cc(OC)c(OC)c(OC)c2)cc1[N+](=O)[O-]`, the “growth inhibition (GI)” value in the assay with Saccharomyces cerevisiae [12], with Saccharomyces cerevisiae [13] and with Saccharomyces cerevisiae [14] was “inactive” in each case.

Regarding `COc1ccc(/C=C/c2cc(OC)c(OC)c(OC)c2)cc1O`, the “growth inhibition (GI)” value with Saccharomyces cerevisiae [12], in the assay with Saccharomyces cerevisiae [13] and in the assay on Saccharomyces cerevisiae [14] was “inactive” throughout.

Consider `COc1ccc(/C=C/c2cc(OC)c(OC)c(OC)c2)cc1F`, for which the “growth inhibition (GI)” value in the assay on Saccharomyces cerevisiae [12], with Saccharomyces cerevisiae [13] and in the assay on Saccharomyces cerevisiae [14] was “inactive” throughout.

Consider `COc1ccc(/C=C\c2cc(OC)c(OC)c(OC)c2)cc1F`, for which the “growth inhibition (GI)” value in the assay on Saccharomyces cerevisiae [12], with Saccharomyces cerevisiae [13] and in the assay on Saccharomyces cerevisiae [14] was “inactive” in each case.

Take `COc1ccc(/C=C/c2cc(OC)c(OC)c(OC)c2)cc1B(O)O`: the “growth inhibition (GI)” value with Saccharomyces cerevisiae [12], in the assay with Saccharomyces cerevisiae [13] and with Saccharomyces cerevisiae [14] was “inactive” in each case.

Regarding `COc1ccc(/C=C/c2cc(OC)c(OC)c(OC)c2)cc1N`, the “growth inhibition (GI)” value with Saccharomyces cerevisiae [12], in the assay with Saccharomyces cerevisiae [13] and with Saccharomyces cerevisiae [14] was “inactive” throughout.
